Assay [1] concerns human renal cell carcinoma cell line RCC4. Briefly: Phospholipid profiling (tandem MS) of soraphen-treated RCC4 cells. It counts as cell-based. The following applies: 100 nm soraphen vs vehicle, 72 h, PC, PE, PI, PS classes. As to the method:
Renal cancer cell lines RCC4 VHL (Von Hippel Lindau) positive and negative were cultured in advanced DMEM supplemented with 10% fetal bovine serum, 1% PSG and 0.5 mg/ml G418. Cells were grown at 37° C. in a humidified 5% CO2 incubator. The day after seeding, cells were treated with 100 nm soraphen or vehicle (control) for 72 h.
To assess the impact of fatty acyl chain elongation and of chemical inhibitors of this process, the human renal cell carcinoma cell line RCC4 was treated with soraphen.

In assay [2] the test system is Human breast adenocarcinoma cells MDA-MB-231. Nature of the assay: Phospholipid profiling (tandem MS) of soraphen-treated MDA-MB-231 cells. Type of assay: cell-based. The following applies: 100 nm soraphen vs vehicle, 72 h, four phospholipid classes. The protocol: Human breast adenocarcinoma cells MDA-MB-231 (obtained from the American Type Culture Collection) were cultured in DMEM-F12 supplemented with 10% fetal bovine serum and were grown at 37° C. in a humidified 5% CO2 incubator. The day after seeding, cells were treated with 100 nm soraphen or vehicle (control) for 72 h.
Lipids were extracted from both soraphen and vehicle treated cells and were analyzed by tandem mass spectrometry.

“Also recorded” adds a separate entry of the source.

As for `CO[C@H]1CCCC[C@@H](c2ccccc2)OC(=O)[C@@H](C)[C@@]2(O)O[C@H]([C@@H](C)[C@H](O)[C@H]2OC)[C@@H](C)/C=C/[C@H]1OC` [soraphen], the results for the “changes in phospholipid acyl chain composition (soraphen/control ratio)” value in assay [1] and in assay [2] were “a marked shift from longer to shorter lipid species; also recorded: a marked inhibition of acyl chain elongation” and “a marked shift from longer to shorter lipid species; also recorded: a clear decrease in the longer lipid species”, respectively.
